In brackets after ≈: the same amount, converted by molar mass.
Legend:
P. aeruginosa MPAO1-P2 = assay: Antibiotic resistance of P2 strain; format: cell-based, Pseudomonas aeruginosa; details: for fold higher resistance of P2 strain compared to P1 strain: P2 vs P1
Procedure: FIG. 11. Chloramphenicol resistance of P1 and P2 strains. Strains were cultured in TSB containing 250 μg/ml chloramphenicol and grown in 96-well plate (150 μl/well, shaking at 150 rpm, 37° C. Cell density was measured on Plate Reader at OD 600 nm. Values represent the mean of triplicate cultures.

P. aeruginosa MPAO1-P1 = assay: Antibiotic resistance of P1 strain; format: cell-based; details: Pseudomonas aeruginosa, MPAO1P1

## O=C(N[C@H](CO)[C@H](O)c1ccc([N+](=O)[O-])cc1)C(Cl)Cl [chloramphenicol]
P. aeruginosa MPAO1-P2
  fold higher resistance of P2 strain compared to P1 strain: about 6 fold

## CCn1cc(C(=O)O)c(=O)c2cc(F)c(N3CCNCC3)cc21 [norfloxacin]
P. aeruginosa MPAO1-P1
  MIC: 0.38 µg/mL (≈ 1.19 µM)
P. aeruginosa MPAO1-P2
  fold higher resistance of P2 strain compared to P1 strain: 10 fold
P. aeruginosa MPAO1-P2; Pseudomonas aeruginosa, MPAO1P2, P2 strain
  MIC: 3.8 µg/mL (≈ 11.9 µM)

— patent publication US9937199B2, “Materials and methods for preventing and treating anastomotic leaks” (THE UNIVERSITY OF CHICAGO, priority 2012, dated 2018)
